Key:
[1] = Liquid, Closed cell (Static) method
[2] = excess molar enthalpy (molar enthalpy of mixing); xn = mol fraction of the nth substance listed; conditions: 303.15 K, 101 kPa, Liquid, Calvet calorimetry

CCN(CC)CCN [N,N-diethylethane-1,2-diamine]
[1]
Conditions	vapor or sublimation pressure [kPa]
273.15 K	0.1291
293.15 K	0.5288
298.15 K	0.7256
303.15 K	0.9831
313.15 K	1.741
323.15 K	2.957
333.15 K	4.833
343.15 K	7.634
353.15 K	11.7
363.15 K	17.43

CCN(CC)CCN [N,N-diethylethane-1,2-diamine] + CCCCCCC
[2]
Conditions	excess molar enthalpy [kcal/mol]
x1 = 0.0612	0.0679
x1 = 0.1118	0.115
x1 = 0.1488	0.143
x1 = 0.2038	0.179
x1 = 0.2452	0.201
x1 = 0.3051	0.222
x1 = 0.4078	0.24
x1 = 0.5068	0.239
x1 = 0.6156	0.216
x1 = 0.7084	0.183
x1 = 0.7471	0.164
x1 = 0.8058	0.135
x1 = 0.8841	0.0866

CCCCCCC [heptane]
[1]
Conditions	vapor or sublimation pressure [kPa]
273.15 K	1.536
293.15 K	4.76
298.15 K	6.135
303.15 K	7.829
313.15 K	12.39
323.15 K	18.96
333.15 K	28.14
343.15 K	40.64
353.15 K	57.27
363.15 K	78.94
